In PubChem BioAssay AID2060895 (Molecular Pharmacology Branch, DTP, NCI, 2025):

System: PDC 899932-113-R3-J6 complex spheroid viability
Assay: Anticancer human tumor 899932-113-R3-J6-PDC patient-derived melanoma cell line growth inhibition [RAS]
Settings: for IC50: curve of first compound; for viability, T/C: stronger effect = lower value
In short: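 Multi-cell-type spheroids: tumor cells plus HUVEC endothelial cells and mesenchymal stem cells. RAS-pathway inhibitors were combined with targeted agents, each dosed in half-log steps down from clinical Cmax, or from 10 microM when Cmax was unknown.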

[1] = second compound 0.000949 µM, first compound 0.0316 µM
[2] = second compound 0.000949 µM, first compound 0.1 µM
[3] = second compound 0.000949 µM, first compound 0.316 µM
[4] = second compound 0.000949 µM, first compound 1 µM
[5] = second compound 0.000949 µM, first compound 3.16 µM
[6] = second compound 0.000949 µM, first compound 10 µM
[7] = second compound 0.003 µM, first compound 0.0316 µM
[8] = second compound 0.003 µM, first compound 0.1 µM
[9] = second compound 0.003 µM, first compound 0.316 µM
[10] = second compound 0.003 µM, first compound 1 µM
[11] = second compound 0.003 µM, first compound 3.16 µM
[12] = second compound 0.003 µM, first compound 10 µM
[13] = second compound 0.00949 µM, first compound 0.0316 µM
[14] = second compound 0.00949 µM, first compound 0.1 µM
[15] = second compound 0.00949 µM, first compound 0.316 µM
[16] = second compound 0.00949 µM, first compound 1 µM
[17] = second compound 0.00949 µM, first compound 3.16 µM
[18] = second compound 0.00949 µM, first compound 10 µM
[19] = second compound 0.03 µM, first compound 0.0316 µM
[20] = second compound 0.03 µM, first compound 0.1 µM
[21] = second compound 0.03 µM, first compound 0.316 µM
[22] = second compound 0.03 µM, first compound 1 µM
[23] = second compound 0.03 µM, first compound 3.16 µM
[24] = second compound 0.03 µM, first compound 10 µM
[25] = second compound 0.0949 µM, first compound 0.0316 µM
[26] = second compound 0.0949 µM, first compound 0.1 µM
[27] = second compound 0.0949 µM, first compound 0.316 µM
[28] = second compound 0.0949 µM, first compound 1 µM
[29] = second compound 0.0949 µM, first compound 3.16 µM
[30] = second compound 0.0949 µM, first compound 10 µM
[31] = second compound 0.3 µM, first compound 0.0316 µM
[32] = second compound 0.3 µM, first compound 0.1 µM
[33] = second compound 0.3 µM, first compound 0.316 µM
[34] = second compound 0.3 µM, first compound 1 µM
[35] = second compound 0.3 µM, first compound 3.16 µM
[36] = second compound 0.3 µM, first compound 10 µM
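Throughout, for viability, T/C: spheroids exposed to agents for seven days before readout; 100% = DMSO vehicle control wells.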

CC(C)NCC(C(=O)N1CCN(c2ncnc3c2C(C)CC3O)CC1)c1ccc(Cl)cc1 (stereo unspecified) + CCn1c(-c2cccnc2C(C)OC)c2c3cc(ccc31)N1CCOC(CC(NC(=O)C(C(C)C)N(C)C(=O)C3(F)CCN(C(=O)C#CC(C)(C)N(C)C)CC3)C(=O)N3CCCC(N3)C(=O)OCC(C)(C)C2)C1
IC50 (second compound 0.000949 µM): 5520 nM
IC50 (second compound 0.003 µM): 5970 nM
IC50 (second compound 0.00949 µM): 5590 nM
IC50 (second compound 0.03 µM): 4900 nM
IC50 (second compound 0.0949 µM): 3860 nM
IC50 (second compound 0.3 µM): 2640 nM
viability, T/C [1]: 105%
viability, T/C [2]: 97.3%
viability, T/C [3]: 97%
viability, T/C [4]: 84.2%
viability, T/C [5]: 62.5%
viability, T/C [6]: 36.5%
viability, T/C [7]: 112%
viability, T/C [8]: 106%
viability, T/C [9]: 97.3%
viability, T/C [10]: 80%
viability, T/C [11]: 68.7%
viability, T/C [12]: 36.5%
viability, T/C [13]: 111%
viability, T/C [14]: 107%
viability, T/C [15]: 96%
viability, T/C [16]: 90.7%
viability, T/C [17]: 59.2%
viability, T/C [18]: 39%
viability, T/C [19]: 99.3%
viability, T/C [20]: 105%
viability, T/C [21]: 96.2%
viability, T/C [22]: 80.8%
viability, T/C [23]: 58%
viability, T/C [24]: 38%
viability, T/C [25]: 97.3%
viability, T/C [26]: 97.8%
viability, T/C [27]: 88%
viability, T/C [28]: 71.4%
viability, T/C [29]: 53.8%
viability, T/C [30]: 36.7%
viability, T/C [31]: 89.1%
viability, T/C [32]: 84.8%
viability, T/C [33]: 74.3%
viability, T/C [34]: 60.2%
viability, T/C [35]: 49.5%
viability, T/C [36]: 32.6%

CC(Nc1ccc2c(c1)OCCn1cc(N3C(=O)OCC3C(F)F)nc1-2)C(N)=O (stereo unspecified) + CCn1c(-c2cccnc2C(C)OC)c2c3cc(ccc31)N1CCOC(CC(NC(=O)C(C(C)C)N(C)C(=O)C3(F)CCN(C(=O)C#CC(C)(C)N(C)C)CC3)C(=O)N3CCCC(N3)C(=O)OCC(C)(C)C2)C1
IC50 (second compound 0.000949 µM): 1620 nM
IC50 (second compound 0.003 µM): 1870 nM
IC50 (second compound 0.00949 µM): 1380 nM
IC50 (second compound 0.03 µM): 1370 nM
IC50 (second compound 0.0949 µM): 650 nM
IC50 (second compound 0.3 µM): 153 nM
viability, T/C [1]: 94.8%
viability, T/C [2]: 78.5%
viability, T/C [3]: 64.5%
viability, T/C [4]: 56.1%
viability, T/C [5]: 43.4%
viability, T/C [6]: 36.1%
viability, T/C [7]: 90.1%
viability, T/C [8]: 80.9%
viability, T/C [9]: 67%
viability, T/C [10]: 55.6%
viability, T/C [11]: 46%
viability, T/C [12]: 34.1%
viability, T/C [13]: 94.7%
viability, T/C [14]: 80.5%
viability, T/C [15]: 66.4%
viability, T/C [16]: 51.2%
viability, T/C [17]: 44.6%
viability, T/C [18]: 36%
viability, T/C [19]: 86.5%
viability, T/C [20]: 75.8%
viability, T/C [21]: 59.8%
viability, T/C [22]: 57.2%
viability, T/C [23]: 40.5%
viability, T/C [24]: 34%
viability, T/C [25]: 79.5%
viability, T/C [26]: 64.7%
viability, T/C [27]: 57%
viability, T/C [28]: 46%
viability, T/C [29]: 39.2%
viability, T/C [30]: 31.8%
viability, T/C [31]: 69.5%
viability, T/C [32]: 52%
viability, T/C [33]: 45%
viability, T/C [34]: 36.9%
viability, T/C [35]: 34.2%
viability, T/C [36]: 29.4%

O=C(c1ccc(F)c(F)c1Nc1ccc(I)cc1F)N1CC(O)([C@@H]2CCCCN2)C1 + CCn1c(-c2cccnc2C(C)OC)c2c3cc(ccc31)N1CCOC(CC(NC(=O)C(C(C)C)N(C)C(=O)C3(F)CCN(C(=O)C#CC(C)(C)N(C)C)CC3)C(=O)N3CCCC(N3)C(=O)OCC(C)(C)C2)C1
IC50 (second compound 0.000949 µM): 8.14 nM
IC50 (second compound 0.003 µM): 7.67 nM
IC50 (second compound 0.00949 µM): 8.24 nM
IC50 (second compound 0.03 µM): 6.76 nM
IC50 (second compound 0.0949 µM): 6.85 nM
IC50 (second compound 0.3 µM): 4.64 nM
viability, T/C (second compound 0.000949 µM, first compound 0.00316 µM): 72.5%
viability, T/C (second compound 0.000949 µM, first compound 0.01 µM): 45.1%
viability, T/C [1]: 4.63%
viability, T/C [2]: 3.49%
viability, T/C [3]: 1.64%
viability, T/C [4]: 0.82%
viability, T/C (second compound 0.003 µM, first compound 0.00316 µM): 72.3%
viability, T/C (second compound 0.003 µM, first compound 0.01 µM): 43.3%
viability, T/C [7]: 4.76%
viability, T/C [8]: 3.09%
viability, T/C [9]: 1.48%
viability, T/C [10]: 0.53%
viability, T/C (second compound 0.00949 µM, first compound 0.00316 µM): 72.4%
viability, T/C (second compound 0.00949 µM, first compound 0.01 µM): 45.5%
viability, T/C [13]: 5.4%
viability, T/C [14]: 3.03%
viability, T/C [15]: 1.85%
viability, T/C [16]: 0.35%
viability, T/C (second compound 0.03 µM, first compound 0.00316 µM): 71.6%
viability, T/C (second compound 0.03 µM, first compound 0.01 µM): 38.9%
viability, T/C [19]: 5.26%
viability, T/C [20]: 3.43%
viability, T/C [21]: 1.55%
viability, T/C [22]: 0.48%
viability, T/C (second compound 0.0949 µM, first compound 0.00316 µM): 73%
viability, T/C (second compound 0.0949 µM, first compound 0.01 µM): 38.8%
viability, T/C [25]: 4.74%
viability, T/C [26]: 2.54%
viability, T/C [27]: 1.48%
viability, T/C [28]: 0.61%
viability, T/C (second compound 0.3 µM, first compound 0.00316 µM): 60.2%
viability, T/C (second compound 0.3 µM, first compound 0.01 µM): 29.6%
viability, T/C [31]: 3.92%
viability, T/C [32]: 2.9%
viability, T/C [33]: 0.95%
viability, T/C [34]: 0.52%
